Source: a melting point compilation (Tetko et al.; mined from patent text by program, amines drawn as free bases though some values may be those of a salt)

| melting point [°C] | SMILES |
| --- | --- |
| 68 to 70 | Cc1ccccc1C(CCC(=O)NS(=O)(=O)c1ccccc1)Oc1cc(OCc2ccsc2)ccc1C#N (racemic) |
| 124 to 126 | CC(C)(C)OC(=O)Nc1cc(CC#N)c(I)cc1[N+](=O)[O-] |
| 200 | CC(C)(C)OC(=O)NC(C)(C)c1ccc(-c2nc(Nc3ccc(CCN4CCOCC4)cc3)ncc2C#N)cc1 |
| 185 | OCC1Cc2sccc2CN1C(=S)Nc1cccc2cnccc12 (racemic) |
| 185 to 187 | CCc1cccc2c1OC(C(F)(F)F)C(C(=O)O)=C2 (stereo unspecified) |
| > 230 | CSc1nn2c(N)cc(C3CC3)nc2c1S(=O)(=O)c1ccccc1 |
| 62 to 63 | CCOC(=O)CC(NC(=O)c1ccccc1)C(=O)c1ccsc1 (stereo unspecified) |
| 150 to 151 | COc1nc(C)cnc1NS(=O)(=O)c1cccnc1-c1ccc(C(C)(C)C)cc1 |
| 74 to 76 | COc1cc([N+](=O)[O-])c(F)cc1Br |
| 244 to 247 | CNS(=O)(=O)c1ccc2c(c1)S(=O)(=O)N=C1CCCN12 |
| 85 | CN1CCC(OC2c3ccccc3CCn3c2nc(I)c3C(N)=O)CC1 (stereo unspecified) |
| 173 to 175 | N#CCOC(=O)c1ccc(C(c2ccccc2)(c2ccccc2)c2ccccc2)cn1 |
| 217 to 219 | C[C@H](CO)NN1c2[nH]c(=O)cnc2C=NC1SCc1cccc(C(F)(F)F)c1F (stereo partly specified) |
| 123 to 126 | CCOC(=O)/C(=N\O[C@@H]1CCCC[C@@H]1C)c1csc(N)n1 (relative stereo) |
| 216 to 217 | Cc1ccc(-c2c(CNC(=O)OC(C)(C)C)c(CC(C)(C)C)nc(C)c2C(=O)O)cc1 |
| 213 to 216 | COc1cccc(NS(=O)(=O)c2ccc(NC3=C(Cl)C(=O)c4ccccc4C3=O)cc2)c1 |
| 171 | FC(F)(F)c1cccc(-c2cc(C(F)(F)F)n3ncc(-c4cccnc4)c3n2)c1 |
| 114 | COC(=O)C(C(=O)OC)C(C)(N)C(Cc1ccccc1[N+](=O)[O-])c1ccccc1 (stereo unspecified) |
| 248 | Fc1cc(F)c(-c2c(F)nc3ncncc3c2F)c(F)c1 |
| 107 | COC(=O)c1ccc(F)cc1OC(=S)N(C)C |
| 95 to 96 | Oc1cncc(Cl)c1CCCOc1cccnc1Oc1cccc(Cl)c1 |
| 114 to 116 | CCc1cc(N)c(N)cc1CC |
| 280 to 282 | CCOC(=O)CCc1ccc2c(c1)c(-c1cc3cccnc3n1S(=O)(=O)c1ccc(C)cc1)cn2C |

| melting point [°C] | SMILES |
| --- | --- |
| 181 | O=C1NCCNC1c1cn(Cc2ccccc2Cl)c2ccccc12 (stereo unspecified) |
| 182 to 183 | O=C(O)Cc1ccc([N+](=O)[O-])c(C(=O)c2ccc(Cl)cc2)c1 |
| 56 | COC(=O)C(C(=O)OC)=C(/C=C/Cl)CCl |
| 189 to 191 | O=c1oc(-c2ccccc2)cc(O)c1C(SC1CCCCC1)c1ccccc1 (stereo unspecified) |
| 200 | Cc1cc(C)cc(S(=O)(=O)n2c(CCCC(=O)O)cc3nc(Cl)ccc32)c1 |
| 138 to 139 | CCOC(=O)c1cc2cc(C#N)ccc2s1 |
| 190 to 195 | O=C1Nc2ccccc2N(C(=O)CN2CCCCC2CN2CCCCC2)c2cscc21 (stereo unspecified) |
| 361 to 363 | NC(=O)c1nc(-c2cccc(O)c2)nc2c1[nH]c(=O)n2C1CCOCC1 |
| 93 to 94 | COc1ccc(C(=O)c2ccc(Cl)nc2)c(OCc2ccccc2)c1 |
| > 250 | CCOC(=O)c1nc2c(=O)[nH]c3cc(F)ccc3n2c1C |
| 106 to 108 | COCN(C(=O)CCl)c1c([N+](=O)[O-])cccc1[N+](=O)[O-] |
| 93 to 94 | CCC(CC(=O)NC(=O)OC(C)(C)C)Nc1ccc(Cl)cc1 (stereo unspecified) |
| 288 | S=c1[nH]c(-c2ccc(Br)cc2)c(-c2ccc(Br)cc2)[nH]1 |
| 140 to 143 | N#CCOC(=O)c1cccnc1SCC#N |
| 168 to 169 | CN(Cc1ccccc1)C1CCN(C(=O)c2ccc(-n3cncn3)cc2)CC1 |
| 194 to 197 | CCCCc1nc2c(c(C)c(C)n3nnnc23)n1CC(C)(C)NC(=O)NC1CCCCC1 |
| 64.5 to 66 | Cc1cc2occc2c(Cl)n1 |
| 235 to 238 | Oc1ccc2cc(-c3cnc(-c4ccccc4)o3)ccc2c1 |
| 88 to 90 | ClCCOc1ccc(/C=C/c2nc3ccccc3o2)cc1 |
| 125 to 126 | Cn1c(C#N)ccc1CC(=O)O |
| 193 to 194 | CCOC(=O)NC(=N)NC#N |
| 216 to 218 | Cc1ccc(-n2cc(-c3cccn4nc(Nc5ccc(C6CCNCC6)cc5)nc34)cn2)cc1 |
| > 220 | O=C(Nc1ccc(C(=O)Nc2ccc(Cl)cc2)c(O)c1)c1ccc(-c2nc3cc(Cl)c(Cl)cc3[nH]2)cc1 |

| melting point [°C] | SMILES |
| --- | --- |
| 111 to 112 | COC(=O)C(C)(C)CCCOc1cc(C)c(OC(=O)Nc2c(C(C)C)cccc2C(C)C)cc1C |
| 200 to 201 | COc1c(N2CCC(n3ccnn3)C2)c(F)cc2c(=O)c(C(=O)O)cn(C3CC3)c12 (stereo unspecified) |
| 185 to 186 | COc1ccc(NC(=O)c2ccc(C)cc2O)cc1 |
| 55 to 58 | CC(=O)OCCc1ccc2c(c1)C(=O)c1ccccc1CO2 |
| 219 to 221 | C[C@H](NC(=O)OCc1ccccc1)C(=O)N[C@@H](C)C(=O)Nc1ccccc1 |
| 169 to 171 | CCCCC(NC(=O)OCc1ccccc1)C(=O)Nc1n[nH]c(=S)s1 (stereo unspecified) |
| 98 to 101 | CNCC(O)(Cn1cncn1)c1ccc(Cl)cc1Cl (stereo unspecified) |
| 130 to 131 | O=Cn1cc(Cl)c(-c2cccc(Cl)c2Cl)c1 |
| 101 to 105 | CNS(=O)(=O)CCc1ccc(N)cc1 |
| 140 | c1ccc(-c2cc(CCC3CCNC3)c3ccccc3n2)cc1 (stereo unspecified) |
| 123 to 125 | O=C(O)CN1C(=O)C(O)N(Cc2cccc([N+](=O)[O-])c2)C1=O (stereo unspecified) |
| 47 to 52 | COc1cc(OCCCN(C)C)ccc1C(=O)NN |
| 145 to 149 | Nc1c(F)c(N2C[C@@H]3CCCN[C@@H]3C2)c(F)c2c1c(=O)c(C(=O)O)cn2[C@@H]1C[C@@H]1F |
| 61 to 63 | CCOCCc1ccc(OCCNc2nc(C)nc(C)c2Cl)c(C)c1 |
| > 300 | CNC(=O)c1cccc(Nc2ncnc3[nH]cc(C(=O)c4cccc5ccccc45)c23)c1 |
| 183 to 185 | CC(Oc1cc(-n2nc3n(c2=O)CCCC3)c(Cl)cc1Cl)C(=O)O (stereo unspecified) |
| 121 | Cc1ccnc(-c2cccc(Oc3ccccc3C)n2)n1 |
| 280 to 284 | CC(=O)Nc1cc2c3c(cccc3c1N1CCCC1)C(=O)N(O)C2=O |
| 235 to 236 | CS(=O)(=O)c1ccc(-c2cc(C(=O)c3cc(-c4ccc(S(C)(=O)=O)cc4)c(N4CCOCC4)s3)sc2N2CCOCC2)cc1 |
| 127 | CN(SC(C)(C)C)C(=O)Nc1ccc(Cl)c(Cl)c1 |
| 89 to 90 | Cc1ccc(CCOc2ccnc3c(F)cccc23)cc1 |
| 93 to 95 | CCOc1ccccc1OCC(O)CCN1C(=O)c2ccccc2C1=O (stereo unspecified) |

| SMILES | melting point [°C] |
| --- | --- |
| COC(=O)[C@@H]1C[C@H](N=[N+]=[N-])C(=O)[C@H]2[C@@]1(C)CC[C@H]1C(=O)O[C@H](c3ccoc3)C[C@]21C | 200 to 203 |
| CN1CCc2c(Cl)ccc3c4c(n(c23)CC1)CCCC4 | 128 to 130 |
| CN1C(=O)N(c2ccc([N+](=O)[O-])c(C(F)(F)F)c2)C(=O)C1(C)CF (stereo unspecified) | 118 to 119 |
